# Experimental data taken from publication PMC9847585 (ACS infectious diseases, 2021).
# Like-named read-outs stand apart in the source and are kept apart here.
# Columns and labels:
# tPBP2^H041 [1] = assay: time-dependent gel-based assay, second-order acylation by Bocillin-FL; type: biochemical, Neisseria gonorrhoeae; details: time-course, pH 8.0, room temperature
# tPBP2^H041-K361E [2] = assay: time-dependent gel-based assay, acylation of K361E mutant by Bocillin-FL; type: biochemical, Neisseria gonorrhoeae
# N. gonorrhoeae H041 = assay: minimum inhibitory concentration by agar dilution; type: cell-based, Neisseria gonorrhoeae
# tPBP2^H041-K361E [3] = assay: gel-based competition assay with Bocillin-FL against K361E mutant; type: biochemical, Neisseria gonorrhoeae; details: for Fractional Activity: fractional acylation rate of K361E compared to native tPBP2^H041; for K361E k2/Ks: tPBP2^H041-K361E mutant, competition with Bocillin-FL; for reduction in acylation rate against K361E mutant: K361E versus native tPBP2^H041
# tPBP2^H041 [4] = assay: gel-based competition assay with Bocillin-FL, second-order acylation rate; type: biochemical, Neisseria gonorrhoeae
# [5] = system: N. gonorrhoeae strain H041
# (non-mosaic) PBP2 = details: membrane preparations; cited from earlier work
# [6] = cited from earlier work
# [7] = whole molecule; cited from earlier work
# [8] = system: wild-type PBP2 (tPBP2^WT); details: cited from earlier work
# tPBP2^H041 [9] = details: cited from earlier work
# H041 = details: cited from earlier work
# [10] = system: FA19 with mosaic penA gene from H041 (penA41); details: allelic exchange; cited from earlier work
# [11] = Neisseria gonorrhoeae, H041, 24 h
smiles,measurement,setting,value
Cc1cc(C)n2c1C=C1C=CC(CCC(=O)Nc3ccc(OCC(=O)N[C@@H]4C(=O)N5[C@@H]4SC(C)(C)[C@@H]5C(=O)[O-])cc3)=[N+]1[B-]2(F)F.[Na+] [Bocillin-FL],second-order acylation rate k2/Ks of Bocillin-FL,tPBP2^H041 [1],275 ± 9 M⁻¹ s⁻¹
same,decrease in Bocillin-FL acylation rate against K361E,tPBP2^H041-K361E [2]; compared to the native enzyme,5 fold
same,second-order acylation rate of Bocillin-FL against K361E,"tPBP2^H041-K361E [2]; tPBP2^H041-K361E mutant, time-course",57 ± 1 M⁻¹ s⁻¹
N[C@@H](C(=O)N[C@@H]1C(=O)N2C(C(=O)O)=C(Cl)CS[C@H]12)c1ccccc1 [cefaclor],MIC,N. gonorrhoeae H041; [11],≥ 32 µg/mL
C=CC1=C(C(=O)O)N2C(=O)[C@@H](NC(=O)/C(=N\O)c3csc(N)n3)[C@H]2SC1 [cefdinir],MIC,N. gonorrhoeae H041; [11],2 µg/mL
CO/N=C(\C(=O)N[C@@H]1C(=O)N2C(C(=O)[O-])=C(C[N+]3(C)CCCC3)CS[C@H]12)c1csc(N)n1 [cefepime],Fractional Activity,tPBP2^H041-K361E [3],0.64
same,K361E k2/Ks,tPBP2^H041-K361E [3],410 ± 130 M⁻¹ s⁻¹
CCN1CCN(C(=O)N[C@@H](C(=O)N[C@@H]2C(=O)N3C(C(=O)O)=C(CSc4nnnn4C)CS[C@H]23)c2ccc(O)cc2)C(=O)C1=O [cefoperazone],acylation rate relative to ceftriaxone (faster),tPBP2^H041 [4],7 fold
same,reduction in acylation rate against K361E mutant,tPBP2^H041-K361E [3],32 fold
same,Fractional Activity,tPBP2^H041-K361E [3],0.03
same,K361E k2/Ks,tPBP2^H041-K361E [3],370 ± 60 M⁻¹ s⁻¹
same,MIC,N. gonorrhoeae H041; [11],1 µg/mL
same,culture negativity,"[5]; 120 mg/kg TID one day, intraperitoneal, by day 3 post-treatment, n = 9",100%
same,concentration at which bound to PBP2,(non-mosaic) PBP2,less than 10^−3 μg/mL
same,route of excretion,[6],primarily biliary
CO[C@@]1(NC(=O)Cc2cccs2)C(=O)N2C(C(=O)O)=C(COC(N)=O)CS[C@@H]21 [cefoxitin],MIC,N. gonorrhoeae H041; 24 hr,3 µg/mL
same,MIC,N. gonorrhoeae H041; [11],4 µg/mL
Cc1cc(O)c(C(=O)N[C@@H](C(=O)N[C@@H]2C(=O)N3C(C(=O)O)=C(CSc4nnnn4C)CS[C@H]23)c2ccc(O)cc2)cn1 [cefpiramide],k2/Ks lower than cefoperazone,tPBP2^H041 [4],100 fold
NC(=O)c1cc[n+](CC2=C(C(=O)O)N3C(=O)[C@@H](NC(=O)[C@@H](c4ccccc4)S(=O)(=O)[O-])[C@H]3SC2)cc1 [cefsulodin],MIC,N. gonorrhoeae H041; [11],≥ 32 µg/mL
CCO/N=C(\C(=O)N[C@@H]1C(=O)N2C(C(=O)[O-])=C(Sc3nc(-c4cc[n+](C)cc4)cs3)CS[C@H]12)c1nsc(N)n1 [ceftaroline],logD7.4,[7],1.03
CC(C)(O/N=C(\C(=O)N[C@@H]1C(=O)N2C(C(=O)[O-])=C(C[n+]3ccccc3)CS[C@H]12)c1csc(N)n1)C(=O)O [ceftazidime],Fractional Activity,tPBP2^H041-K361E [3],0.70
same,K361E k2/Ks,tPBP2^H041-K361E [3],560 ± 180 M⁻¹ s⁻¹
same,MIC,N. gonorrhoeae H041; [11],≥ 32 µg/mL
CO/N=C(\C(=O)N[C@@H]1C(=O)N2C(C(=O)O)=C(CSc3nc(=O)c(=O)[nH]n3C)CS[C@H]12)c1csc(N)n1 [ceftriaxone],reduction in acylation rate against K361E mutant,tPBP2^H041-K361E [3],6 fold
same,Fractional Activity,tPBP2^H041-K361E [3],0.17
same,K361E k2/Ks,tPBP2^H041-K361E [3],290 ± 70 M⁻¹ s⁻¹
same,MIC,N. gonorrhoeae H041; [11],2 µg/mL
same,k3 (deacylation rate) of acylated complex,[8],2.8e-06 s⁻¹
same,k3 (deacylation rate) of acylated complex,tPBP2^H041 [9],8.1e-05 s⁻¹
same,increase in MIC compared to strain FA19,H041; H041 versus FA19,"3,000 fold"
same,MIC,H041; strain H041,2 µg/mL
same,increase in MIC on replacing wild-type penA in FA19 with penA41,[10],570 fold
same,route of excretion,[6],primarily renal
CC1=C(C(=O)O)N2C(=O)[C@@H](NC(=O)[C@H](N)c3ccccc3)[C@H]2SC1 [cephalexin],MIC,N. gonorrhoeae H041; [11],≥ 32 µg/mL
CC(=O)OCC1=C(C(=O)O)N2C(=O)[C@@H](NC(=O)Cc3cccs3)[C@H]2SC1 [cephalothin],MIC,N. gonorrhoeae H041; [11],≥ 32 µg/mL
CNC(C)C1CCC(N)C(OC2C(N)CC(N)C(OC3OCC(C)(O)C(NC)C3O)C2O)O1 (stereo not shown) [gentamicin],culture negativity,"[5]; 48 mg/kg once a day for 5 days (5QD), by day 4 after initiation of treatment, n = 8",100%
same,mean time-to-clearance,"[5]; 48 mg/kg once a day for 5 days (5QD), n = 8",3.1 days
